Data from patent publication US11505529B2, “8-phenyl-isoquinolines and pharmaceutical composition thereof used in the treatment of irritable bowel syndrome” (NATIONAL TAIWAN UNIVERSITY, priority 2017, dated 2022).
Structures can show the parent of a compound that is named as a salt.

Legend:
5-HT7R = 5-HT7R (Homo sapiens, UniProt P34969); assay: 5-HT7 receptor binding affinity
log D = assay type: physicochemical
5-HT2AR = 5-HT2AR (Homo sapiens, UniProt P28223); assay: 5-HT2A receptor binding affinity
GW mice = assay: Intestinal pain (visceromotor response to colorectal distension) in mice with Giardia postinfection plus water avoidance stress (GW); assay type: in vivo, C57BL/6 mice; details: for intestinal pain (VMR): p.o. single dose 5 mg/Kg, 90 minutes before analysis
Excerpt: Two animal models of IBS that had shown visceral hypersensitivity were used in the study, including dual challenge of postinfection combined with psychological stress, and post-inflammation. In the first model, mice were divided into two groups, including one group subjected to dual triggers of Giardia postinfection and water avoidance stress (GW) and the one group pair-fed with saline and non-handled (PN) as uninfected unstressed normal controls. Axenic Giardia lamblia trophozoites (strain GS/M, ATCC 50581) were cultured in vitro and harvested at log-phase as described in Singer et al., (T-cell-dependent control of acute Giardia lamblia infections in mice. Infect. Immun. 2000; 68:170-175) and Davids et al. (Polymeric immunoglobulin receptor in intestinal immune defense against the lumen-dwelling protozoan parasite Giardia. J Immunol 2006; 177:6281-6290). Mice were orally gavaged with 10^7 Giardia trophozoites suspended in 0.2 ml of sterile phosphate-buffered saline (PBS) or pair-fed with the same volume of PBS. The status of Giardia infection was verified after 4-7 days by enumeration of motile trophozoites in the small intestine following a cold-shock protocol (disclosed in Scott K G, Yu L C H, Buret A G. Role of CD8+ and CD4+ T lymphocytes in jejunal mucosal injury during murine giardiasis. Infect. Immun. 2004; 72:3536-3542 and Scott K G, Meddings J B, Kirk D R, et al. Intestinal infection with Giardia spp. reduces epithelial barrier function in a myosin light chain kinase-dependent fashion. Gastroenterology 2002; 123:1179-1190). On the sixth week postinfection in which the trophozoites could not be detected in the small intestine (post-clearance phase), mice were subjected to chronic psychological stress. The procedure of WAS involved placing the mouse on a platform (3×6 cm) in the center of a container (56×50 cm) with 3 cm (vertical height) of room temperature water. Mice remained on the platform for 1 hr to avoid water immersion as a psychological stress without physical harm. The 1-hr stress sessions were carried out for 10 consecutive days to mimic chronic repeated stress, and were performed between 9:00 and 12:00 to minimize the effect of the circadian rhythm. Uninfected and unstressed non-handled animals were kept in their cages as normal controls. On the last day of the stress session, intestinal pain was measured in mice.
For testing of anti-nociceptive effects in the GW model, mice were administered novel 5-HT7R ligands by a single dose 90 or 240 minutes prior to intestinal pain measurement. In additional settings, the novel ligands were repeatedly administered for 10 consecutive days 30 minutes before the start of each stress session and intestinal pain was measured immediately after the last stress session.
Abdominal pain was measured by visceromoter response (VMR) to colorectal distension (CRD) in mice following previously described methods with slight modification (Lu C L, Hsieh J C, Dun N J, et al. Estrogen rapidly modulates 5-hydroxytrytophan-induced visceral hypersensitivity via GPR30 in rats. Gastroenterology 2009; 137:1040-1050; Hong S, Zheng G, Wu X, et al. Corticosterone mediates reciprocal changes in CB 1 and TRPV1 receptors in primary sensory neurons in the chronically stressed rat. Gastroenterology 2011; 140:627-637 e4). Briefly, electrodes made from Teflon-coated stainless steel wire (A-M systems, Carlsborg, Wash.) were implanted in the abdominal external oblique muscles of mice at least 15 days prior to VMR experiments. The electrodes were exteriorized onto the back of the neck. Mice were habituated in the plexiglass cylinder for 30 minutes per day for 3 consecutive days before VMR experiments. The cylinder was used for partial restraint of conscious mice during the CRD experiments. For recording, electrodes were connected to an electromyogram acquisition system (AD instruments, New south wales, Australia). […]

TNBS mice = assay: Intestinal pain (visceromotor response to colorectal distension) in post-TNBS colitis mice; assay type: in vivo, C57BL/6 mice; details: for intestinal pain (VMR): p.o. single dose 5 mg/kg, 90 minutes before analysis
Method: In the second model, intestinal inflammation was induced by intracolonic administration of 10% 2,4,6-trinotrobenzene sulfonic acid (TNBS) in 0.2 ml of 50% ethanol (Sigma-Aldrich, St. Louis, Mo., USA) via a 22-gauge feeding needle. Sham controls were given PBS in the same volume. Intestinal inflammatory parameters and pain levels were measured on various time points after TNBS administration.
For testing of anti-nociceptive effects in the post-TNBS model, mice were administered with novel 5-HT7R ligands by a single dose at 90 or 240 minutes before or by repeated administration of multiple doses for 10 consecutive days prior to intestinal pain measurement.
Abdominal pain was measured by visceromoter response (VMR) to colorectal distension (CRD) in mice following previously described methods with slight modification (Lu C L, Hsieh J C, Dun N J, et al. Estrogen rapidly modulates 5-hydroxytrytophan-induced visceral hypersensitivity via GPR30 in rats. Gastroenterology 2009; 137:1040-1050; Hong S, Zheng G, Wu X, et al. Corticosterone mediates reciprocal changes in CB 1 and TRPV1 receptors in primary sensory neurons in the chronically stressed rat. Gastroenterology 2011; 140:627-637 e4). Briefly, electrodes made from Teflon-coated stainless steel wire (A-M systems, Carlsborg, Wash.) were implanted in the abdominal external oblique muscles of mice at least 15 days prior to VMR experiments. The electrodes were exteriorized onto the back of the neck. Mice were habituated in the plexiglass cylinder for 30 minutes per day for 3 consecutive days before VMR experiments. The cylinder was used for partial restraint of conscious mice during the CRD experiments. For recording, electrodes were connected to an electromyogram acquisition system (AD instruments, New south wales, Australia). The colon was distended by inflating a balloon catheter inserted intra-anally such that it ended 1.5 cm proximal to the anus. Mice were subjected to […] 10-second distensions (15, 40, and 65 mmHg) with 3-min rest intervals. The electromyographic (EMG) activity was amplified and digitized using a transducer (AD instruments) connected to a P511 AC amplifier (Grass instruments, Calif., USA) and Powerlab device with Chart 5 software (AD instruments). The EMG activity was rectified, and the response was recorded as the increase in the area under the curve (AUC) of the EMG amplitude during CRD versus the baseline period.

colonic tissues = assay: Colonic histology (adverse response) after treatment in GW and TNBS mice
Excerpt: Intestinal tissues were fixed in 4% paraformaldehyde (PFA) and embedded in paraffin wax with proper orientation of the crypt to villus axis before sectioning. Sections of 5-μm thickness were deparaffinized with xylene and graded ethanol, stained with hematoxylin and eosin (H&E), and observed under a light microscope.

5-HT7R, sequence (P34969 whole entry): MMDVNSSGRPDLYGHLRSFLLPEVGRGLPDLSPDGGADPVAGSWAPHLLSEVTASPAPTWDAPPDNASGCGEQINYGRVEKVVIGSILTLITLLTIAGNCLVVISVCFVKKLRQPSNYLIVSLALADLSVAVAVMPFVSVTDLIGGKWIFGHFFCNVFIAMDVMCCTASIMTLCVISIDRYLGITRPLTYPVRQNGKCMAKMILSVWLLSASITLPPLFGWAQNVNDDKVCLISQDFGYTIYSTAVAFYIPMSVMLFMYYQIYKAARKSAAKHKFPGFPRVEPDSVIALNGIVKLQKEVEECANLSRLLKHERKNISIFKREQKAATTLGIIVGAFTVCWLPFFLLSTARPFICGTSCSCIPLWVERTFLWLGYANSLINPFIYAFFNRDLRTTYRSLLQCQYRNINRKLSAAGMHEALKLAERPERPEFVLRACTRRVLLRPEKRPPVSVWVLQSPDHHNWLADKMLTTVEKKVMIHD
5-HT2AR, sequence (P28223 whole entry): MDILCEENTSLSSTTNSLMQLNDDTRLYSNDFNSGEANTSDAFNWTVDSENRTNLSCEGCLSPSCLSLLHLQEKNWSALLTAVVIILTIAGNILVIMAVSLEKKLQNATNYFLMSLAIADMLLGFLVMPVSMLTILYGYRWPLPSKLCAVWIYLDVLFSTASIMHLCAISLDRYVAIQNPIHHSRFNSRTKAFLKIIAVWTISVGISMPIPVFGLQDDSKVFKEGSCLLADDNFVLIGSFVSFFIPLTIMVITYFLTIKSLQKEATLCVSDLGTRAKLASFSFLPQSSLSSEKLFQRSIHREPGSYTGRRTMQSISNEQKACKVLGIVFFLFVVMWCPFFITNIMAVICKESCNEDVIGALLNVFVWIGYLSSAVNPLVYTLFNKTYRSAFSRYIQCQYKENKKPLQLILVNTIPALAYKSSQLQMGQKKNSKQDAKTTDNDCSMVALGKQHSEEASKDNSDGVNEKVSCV

| SMILES | Ki (5-HT7R) | logD (log D) | Ki (5-HT2AR) | intestinal pain (VMR) (GW mice; GW mice) | intestinal pain (VMR) (TNBS mice) | further results |
| --- | --- | --- | --- | --- | --- | --- |
| COc1ccccc1-c1c(O)c(OC)cc2c1CN(CCCc1ccc([N+](=O)[O-])cc1)CC2 [Compound 7, 6-methoxy-8-(2-methoxyphenyl)-2-(3-(4-nitrophenyl)propyl)-1,2,3,4-tetrahydroisoquinolin-7-ol] | 1.4 nM | 3.66 | 70 nM | – | – | – |
| CC1CCN(CC[C@H]2CCCN2S(=O)(=O)c2cccc(O)c2)CC1.Cl [SB7, SB-269970 hydrochloride, reference compound] | – | – | – | had no effect on intestinal nociception | had no effect on intestinal pain | intestinal pain measured by VMR (GW mice; i.p., 0.5 mg/Kg, IBS-like mouse model (FIG. 7)): significantly inhibited intestinal pain levels |
| COc1ccccc1-c1c2c(cc(OC)c1OC)CCN(CCCc1ccncc1)C2 [Compound 10, 6,7-dimethoxy-8-(2-methoxyphenyl)-2-(3-(pyridin-4-yl)propyl)-1,2,3,4-tetrahydroisoquinoline] | 7.1 nM | 2.93 | > 1000 nM | – | – | – |
| Cc1[nH]cnc1CN1CCc2c(c3ccccc3n2C)C1=O [ALN, alosetron hydrochloride] | – | – | – | reduced intestinal pain but was less efficient compared to compound 8 | had no effect on intestinal pain | mice with hyperemia and granulocyte infiltration in the colonic tissues (colonic tissues; C57BL/6, mouse, in vivo): 14%; colonic histology (colonic tissues; p.o. 5 mg/Kg, GW and TNBS mice, hydrochloride, 5 mg/kg): Hyperemia (*) and granulocyte infiltration (arrowheads) were observed |
| COc1ccccc1-c1c(O)c(OC)cc2c1CN(CCCc1cccnc1)CC2 [Compound 9, 6-methoxy-8-(2-methoxyphenyl)-2-(3-(pyridin-3-yl)propyl)-1,2,3,4-tetrahydroisoquinolin-7-ol] | 4.9 nM | 1.7 | > 1000 nM | – | – | – |
| COc1ccc(-c2c(O)c(OC)cc3c2CN(CCc2ccccc2F)CC3)c(OC)c1 [Compound 6] | 3.5 nM | 3.98 | 2.2 nM | – | – | – |
| CN(C)C(=O)C(CCN1CCC(O)(c2ccc(Cl)cc2)CC1)(c1ccccc1)c1ccccc1 [LPM, loperamide hydrochloride, reference compound] | – | – | – | had no effect on intestinal nociception | had no effect on intestinal pain | – |
| COc1ccccc1-c1c(O)c(OC)cc2c1CN(CCCc1ccncc1)CC2 [Compound 8, 6-methoxy-8-(2-methoxyphenyl)-2-(3-(pyridin-4-yl)propyl)-1,2,3,4-tetrahydroisoquinolin-7-ol] | 5.8 nM | 1.68 | > 1000 nM | strongest inhibition of intestinal pain to baseline levels | – | intestinal pain, time response (GW mice; GW mice, 5 mg/kg p.o. at 1.5, 4 or 12 hours prior to pain measurement): Reduction of pain levels was seen at three time points; intestinal pain, dose response (GW mice; GW mice, i.p. at 0.05 and 0.5 mg/kg, 90 minutes before analysis (FIG. 9A)): Dose-dependent analgesic effects; intestinal pain, dose response (GW mice; GW mice, p.o. at 1.5 and 5 mg/kg, 90 minutes before analysis (FIG. 9B)): Dose-dependent analgesic effects; intestinal pain after repeated administration (GW mice; GW mice, p.o. multiple doses over 10 days): decreased intestinal pain in GW mice in a dose-dependent manner; intestinal pain after repeated administration (TNBS mice; multiple doses): reduced intestinal pain |
